PubChem BioAssay AID220 (DTP/NCI, 2004)
Several values for one entry are separate records, joined by “and”; a condition that tells them apart may be missing. Equal entries are not always repeated. Inconclusive results are not listed.

System: CD8F1 mice, subcutaneous mammary adenocarcinoma, T/C%
Assay: NCI In Vivo Anticancer Drug Screen. Data for tumor model Mammary Adenocarcinoma CD8F1 (subcutaneous) in CD8F1
Conditions: higher = larger tumour
Outline: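 Transplantable tumors were established in mice, animals were dosed with compound or vehicle, and survival or tumor size was then measured in both groups. The treated result was divided by the control result.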

[1] = endpoint: median tumor weight (est.), dose: 25.0 mg/kg/injection, schedule: Q07DX005 (ip), vehicle: saline
[2] = endpoint: median tumor weight (est.), dose: 100.0 mg/kg/injection, schedule: Q07DX005 (ip), vehicle: saline
[3] = endpoint: median tumor weight change, dose: 62.0 mg/kg/injection, schedule: Q01DX001 (ip), vehicle: saline with Tween-80
[4] = endpoint: median tumor weight change, dose: 62.5 mg/kg/injection, schedule: Q01DX001 (ip), vehicle: saline with Tween-80
[5] = endpoint: median tumor weight change, dose: 62.5 mg/kg/injection, schedule: Q01DX001 (ip), vehicle: Klucel (hydroxypropylcellulose) (HPC)
[6] = endpoint: median tumor weight change, dose: 125.0 mg/kg/injection, schedule: Q01DX001 (ip), vehicle: Klucel (hydroxypropylcellulose) (HPC)
[7] = endpoint: median tumor weight change, dose: 125.0 mg/kg/injection, schedule: Q01DX001 (ip), vehicle: saline with Tween-80
[8] = endpoint: median tumor weight change, dose: 250.0 mg/kg/injection, schedule: Q01DX001 (ip), vehicle: saline with Tween-80
[9] = endpoint: median tumor weight change, dose: 500.0 mg/kg/injection, schedule: Q01DX001 (ip), vehicle: saline with Tween-80

NC(=S)c1ncn(C2OC(CO)C(O)C2O)c1N (configuration not stated)
T/C (endpoint: median tumor weight (est.), dose: 12.5 mg/kg/injection, schedule: Q07DX005 (ip), vehicle: saline): 31 % of control | T/C [1]: 48 % of control | T/C (endpoint: median tumor weight (est.), dose: 25.0 mg/kg/injection, schedule: Q07DX005 (ip), vehicle: suspension in saline): 192 % of control | T/C (endpoint: median tumor weight (est.), dose: 50.0 mg/kg/injection, schedule: Q07DX005 (ip), vehicle: saline): 39 % of control | T/C (endpoint: median tumor weight (est.), dose: 50.0 mg/kg/injection, schedule: Q07DX005 (ip), vehicle: suspension in saline): 49 % of control | T/C [2]: 31 % of control | T/C (endpoint: median tumor weight (est.), dose: 100.0 mg/kg/injection, schedule: Q07DX005 (ip), vehicle: suspension in saline): 45 % of control | T/C (endpoint: median tumor weight (est.), dose: 200.0 mg/kg/injection, schedule: Q07DX005 (ip), vehicle: saline): 12 % of control | T/C (endpoint: median tumor weight (est.), dose: 200.0 mg/kg/injection, schedule: Q07DX005 (ip), vehicle: suspension in saline): 95 % of control | T/C (endpoint: median tumor weight (est.), dose: 400.0 mg/kg/injection, schedule: Q07DX005 (ip), vehicle: saline): 10 % of control | T/C (endpoint: median tumor weight (est.), dose: 400.0 mg/kg/injection, schedule: Q07DX005 (ip), vehicle: suspension in saline): 121 % of control

O=C(O[Si](Cc1ccccc1)(Cc1ccccc1)Cc1ccccc1)N(CCCl)CCCl
T/C [3]: 159 % of control | T/C [4]: 98 % of control and 109 % of control

C=C(C)C1C2CC3(C)C4(CO4)C4OC4C3(O)C1C(=O)O2 (configuration not stated)
T/C (endpoint: median tumor weight change, dose: 1.25 mg/kg/injection, schedule: Q01DX001 (ip), vehicle: Klucel (hydroxypropylcellulose) (HPC)): 85 % of control

COc1ccc2[nH]c3ccc4cc[n+](CCN5CCC(C6CCN(CC[n+]7ccc8ccc9[nH]c%10ccc(OC)cc%10c9c8c7)CC6)CC5)cc4c3c2c1
T/C [5]: 58 % of control | T/C [6]: 68 % of control

COC1=C2C[C@@H](C)C[C@@H](OC)[C@@H](O)[C@H](C)/C=C(\C)[C@@H](OC(N)=O)[C@H](OC)/C=C\C=C(/C)C(=O)NC(=CC1=O)C2=O
T/C (endpoint: median tumor weight change, dose: 1.25 mg/kg/injection, schedule: Q01DX001 (ip), vehicle: saline with Tween-80): 93 % of control and 98 % of control | T/C (endpoint: median tumor weight change, dose: 2.5 mg/kg/injection, schedule: Q01DX001 (ip), vehicle: saline with Tween-80): 117 % of control and 121 % of control | T/C (endpoint: median tumor weight change, dose: 5.0 mg/kg/injection, schedule: Q01DX001 (ip), vehicle: saline with Tween-80): 46 % of control

CC[C@@]1(O)C(=O)OCc2c1cc1n(c2=O)Cc2cc3ccccc3nc2-1
T/C (endpoint: median tumor weight change, dose: 1.5 mg/kg/injection, schedule: Q01DX001 (ip), vehicle: saline with Tween-80): 64 % of control | T/C (endpoint: median tumor weight change, dose: 6.0 mg/kg/injection, schedule: Q01DX001 (ip), vehicle: saline with Tween-80): 56 % of control and 73 % of control | T/C (endpoint: median tumor weight change, dose: 12.0 mg/kg/injection, schedule: Q01DX001 (ip), vehicle: saline with Tween-80): 62 % of control | T/C (endpoint: median tumor weight change, dose: 24.0 mg/kg/injection, schedule: Q01DX001 (ip), vehicle: saline with Tween-80): 5 % of control and 10 % of control

CN1CCc2c(c3ccccc3c3ccccc23)C1
T/C (endpoint: median tumor weight change, dose: 12.5 mg/kg/injection, schedule: Q01DX001 (ip), vehicle: Klucel (hydroxypropylcellulose) (HPC)): 57 % of control | T/C (endpoint: median tumor weight change, dose: 25.0 mg/kg/injection, schedule: Q01DX001 (ip), vehicle: Klucel (hydroxypropylcellulose) (HPC)): 65 % of control | T/C (endpoint: median tumor weight change, dose: 50.0 mg/kg/injection, schedule: Q01DX001 (ip), vehicle: Klucel (hydroxypropylcellulose) (HPC)): 49 % of control | T/C [5]: 74 % of control | T/C (endpoint: median tumor weight change, dose: 100.0 mg/kg/injection, schedule: Q01DX001 (ip), vehicle: Klucel (hydroxypropylcellulose) (HPC)): 27 % of control | T/C [6]: 56 % of control

COC1(OC)C2C=CC1CC2
T/C [4]: 94 % of control | T/C [7]: 82 % of control | T/C [8]: 107 % of control | T/C [9]: 58 % of control

Nc1nc2c(ncn2C2OC(CO)C(O)C2O)c(=O)[nH]1 (configuration not stated)
T/C (endpoint: median tumor weight (est.), dose: 100.0 mg/kg/injection, schedule: Q07DX005 (ip), vehicle: saline with Tween-80): 86 % of control | T/C (endpoint: median tumor weight (est.), dose: 200.0 mg/kg/injection, schedule: Q07DX005 (ip), vehicle: saline with Tween-80): 92 % of control | T/C (endpoint: median tumor weight (est.), dose: 400.0 mg/kg/injection, schedule: Q07DX005 (ip), vehicle: saline with Tween-80): 110 % of control | T/C (endpoint: median tumor weight (est.), dose: 800.0 mg/kg/injection, schedule: Q07DX005 (ip), vehicle: saline with Tween-80): 88 % of control | T/C (endpoint: median tumor weight (est.), dose: 1600.0 mg/kg/injection, schedule: Q07DX005 (ip), vehicle: saline with Tween-80): 103 % of control | T/C (endpoint: median tumor weight (est.), dose: 3200.0 mg/kg/injection, schedule: Q07DX005 (ip), vehicle: saline with Tween-80): 84 % of control

C=C(C)[C@H]1Cc2c(ccc3c2O[C@@H]2COc4cc(OC)c(OC)cc4[C@@H]2C3=O)O1
T/C (endpoint: median tumor weight (est.), dose: 4.0 mg/kg/injection, schedule: Q07DX005 (ip), vehicle: saline): 95 % of control | T/C (endpoint: median tumor weight (est.), dose: 8.0 mg/kg/injection, schedule: Q07DX005 (ip), vehicle: saline): 85 % of control | T/C (endpoint: median tumor weight (est.), dose: 16.0 mg/kg/injection, schedule: Q07DX005 (ip), vehicle: saline): 102 % of control | T/C (endpoint: median tumor weight (est.), dose: 32.0 mg/kg/injection, schedule: Q07DX005 (ip), vehicle: saline): 95 % of control

C=C(C)[C@@H]1CCc2c(O)c(O)c(=O)cc(C)c2C1
T/C (endpoint: median tumor weight change, dose: 31.0 mg/kg/injection, schedule: Q01DX001 (ip), vehicle: saline with Tween-80): 83 % of control | T/C [3]: 57 % of control | T/C [7]: 88 % of control | T/C [8]: 57 % of control | T/C [9]: 93 % of control

c1cc[c]([Sn][c]2ccccc2)cc1
T/C (endpoint: median tumor weight (est.), dose: 1.25 mg/kg/injection, schedule: Q07DX005 (ip), vehicle: saline): 101 % of control | T/C (endpoint: median tumor weight (est.), dose: 2.5 mg/kg/injection, schedule: Q07DX005 (ip), vehicle: saline): 91 % of control | T/C (endpoint: median tumor weight (est.), dose: 5.0 mg/kg/injection, schedule: Q07DX005 (ip), vehicle: saline): 86 % of control | T/C (endpoint: median tumor weight (est.), dose: 10.0 mg/kg/injection, schedule: Q07DX005 (ip), vehicle: saline): 68 % of control | T/C (endpoint: median tumor weight (est.), dose: 20.0 mg/kg/injection, schedule: Q07DX005 (ip), vehicle: saline): 50 % of control

CC1CN1P1(N2CC2C)=NP(N2CC2C)(N2CC2C)=NP(N2CC2C)(N2CC2C)=N1 (configuration not stated)
T/C (endpoint: mean tumor weight, dose: 12.5 mg/kg/injection, schedule: Q04DX005 (ip), vehicle: saline): 61 % of control | T/C (endpoint: mean tumor weight, dose: 25.0 mg/kg/injection, schedule: Q04DX005 (ip), vehicle: saline): 97 % of control | T/C (endpoint: mean tumor weight, dose: 25.0 mg/kg/injection, schedule: Q07DX005 (ip), vehicle: saline): 119 % of control | T/C (endpoint: mean tumor weight, dose: 50.0 mg/kg/injection, schedule: Q04DX005 (ip), vehicle: saline): 66 % of control | T/C (endpoint: mean tumor weight, dose: 50.0 mg/kg/injection, schedule: Q07DX005 (ip), vehicle: saline): 92 % of control | T/C (endpoint: mean tumor weight, dose: 100.0 mg/kg/injection, schedule: Q04DX005 (ip), vehicle: saline): 13 % of control | T/C (endpoint: mean tumor weight, dose: 100.0 mg/kg/injection, schedule: Q07DX005 (ip), vehicle: saline): 49 % of control | T/C [1]: 70 % of control | T/C [2]: 6 % of control and 11 % of control

Cc1c(-c2ccc(-c3ccccc3F)cc2)nc2ccc(F)cc2c1C(=O)O
T/C (endpoint: median tumor weight change, dose: 5.6 mg/kg/injection, schedule: Q01DX005 (ip), vehicle: water): 53 % of control | T/C (endpoint: median tumor weight change, dose: 11.25 mg/kg/injection, schedule: Q01DX005 (ip), vehicle: water): 33 % of control | T/C (endpoint: median tumor weight change, dose: 19.0 mg/kg/injection, schedule: Q01DX005 (ip), vehicle: water): 74 % of control | T/C (endpoint: median tumor weight change, dose: 22.5 mg/kg/injection, schedule: Q01DX005 (ip), vehicle: water): 29 % of control | T/C (endpoint: median tumor weight change, dose: 32.4 mg/kg/injection, schedule: Q01DX005 (ip), vehicle: water): 13 % of control | T/C (endpoint: median tumor weight change, dose: 45.0 mg/kg/injection, schedule: Q01DX001 (ip), vehicle: water): 56 % of control | T/C (endpoint: median tumor weight change, dose: 45.0 mg/kg/injection, schedule: Q01DX005 (ip), vehicle: water): 24 % of control | T/C (endpoint: median tumor weight change, dose: 54.0 mg/kg/injection, schedule: Q01DX005 (ip), vehicle: water): 27 % of control | T/C (endpoint: median tumor weight change, dose: 90.0 mg/kg/injection, schedule: Q01DX001 (ip), vehicle: water): 82 % of control | T/C (endpoint: median tumor weight change, dose: 90.0 mg/kg/injection, schedule: Q01DX005 (ip), vehicle: water): 15 % of control and 20 % of control
